Experimental data: article PMC7562719, “Discovery of a CNS penetrant small molecule SMN2 splicing modulator with improved tolerability for spinal muscular atrophy” (Scientific Reports, 2020)
Marks after values point to notes of the source that are not given here.

How the values were obtained:
TK6 cells = settings: positive control 6 µg/mL (21 µM), 3 h + S9 mix
Experimental: These articles have been recommended for use in the OECD test guideline (Test No. 487)[49]. For metabolic activation, pre-cultured TK6 cells with the culture medium were supplemented with Sprague–Dawley rat liver mix (S9 mix, IEDA TRADING CORPORATION, Japan) at 3.33 vol%. Then, compound was mixed with the cell suspension and treated under the following treatment conditions: • Short-term treatment for 3 h without S9 mix, followed by a 21-h culture (−S9 mix assay), • Short-term treatment for 3 h with S9 mix, followed by a 21-h culture (+S9 mix assay), or • Continuous treatment for 24 h without S9 mix (24-h assay). For treatment conditions 1 and 2, the cells in each well were centrifuged after the 3-h treatment, the supernatants were discarded, and the cells were washed twice with culture medium. The cells were further cultured with fresh culture medium for 21 h. The compound-treated cells were examined by the unaided eye for precipitation of compound at the start and end of treatment. After treatment, the rest of each cell suspension was centrifuged and then the cells were suspended in a 0.075 mol/L KCl solution at room temperature for 10 min. Then, 25 vol% acetic acid containing methanol was added and the centrifuged cells were fixed. The fixed cells were resuspended in a small amount of 3 vol% acetic acid containing methanol, which was changed two times by centrifugation. Finally, a drop of the cell suspension was transferred onto a slide and dried at room temperature. The slides were stained at room temperature in a 3 vol% Giemsa solution (Merck KGaA) diluted with Sörensen phosphate buffer (1/15 mol/L, pH 6.8, Muto Pure Chemicals Co. Ltd.). Four slides per dose (2 slides per well) were prepared. Each slide was coded randomly. The test was conducted at the following doses of TEC-1. -S9 mix assay: 1.5, 1.7, 1.9, 2.1, 2.3, 2.5, 2.7, 2.9, and 3.1 µg/mL, + S9 mix assay: 1.9, 2.1, 2.3, 2.5, 2.7, 2.9, 3.1, 3.3, and 3.5 µg/mL, 24-h assay: 0.9, 1.1, 1.3, 1.5, 1.7, 1.9, 2.1, 2.3, and 2.5 µg/mL. To perform scoring for compound and negative control groups, the number of cells in the suspensions was counted using a Coulter Counter (Z2; Beckman Coulter, Inc.). The positive control groups were not determined. A portion (0.5 mL) of the cell suspension was diluted with 20 mL of Isoton II, and 0.5 mL of this solution was used for cell counts. The cell number per 1 mL at each culture was calculated by the following formula. Cellnumber/mL=Dilutionfactor×valueof1stcount+valueof2ndcount/2×2
The population doubling (PD) and relative population doubling (RPD) at each concentration was calculated by the following formula. PD=log10cell number at the end of culture/cell number at the start of treatment∗/log102∗:1×10^5cells/mL.
RPD%=PD of the compound-treated group/PD of the negative control group×100 For the treated groups, the 3 consecutive concentrations were selected as follows. […] For all concentrations, 4000 mononuclear cells with cytoplasm were analyzed and the number of cells with micronucleus (micronuclei) was counted using a microscope (× 600). Micronucleus is identified as a round or oval small nucleus in the cytoplasm with the same staining intensity as the main nucleus. The diameter of each micronucleus should be less than 1/2 of the diameter of the main nucleus. Two investigators observed the slides. Each investigator scored 1000 cells for the frequency of micronucleated cells. Data from the two investigators were combined for each culture and the combined data from duplicate cultures were pooled for each concentration for each treatment condition. A cell having one or more micronuclei was recorded as a micronucleated cell.

[1] = set-up: method as in PMID 30302786; settings: Phase I clinical trial, 18 mg/individual; cited from earlier work
FOXM1 = assay: qPCR of FOXM1 transcripts in cynomolgus monkey fibroblasts (NCMDF); type: cell-based; settings: 24 h
Experimental: (§1) GM03813 fibroblasts, GM24468-derived MNs, NRK-49F, MDCK, CV-1, or NCMDF cells were plated at a density of 0.5 or 1.5 × 10^4, 4 × 10^4, 5 × 10^3, 5 × 10^3, 8 × 10^3, or 6 × 10^3 cells/well on 96-well plates, respectively. After approximately 6 h, the medium was added with the same volume of culture medium containing each compound at the concentration of 0.06, 0.2, 0.6, 0.2, and 6 µM. The final concentration of DMSO was adjusted to 0.1% in culture condition.
In the instances of using NRK-49F, MDCK, CV-1 or NCMDF, cell lysis and reverse transcription were carried out using Custom Cells to CT Lysis Components (Ambion) and Cells-to-CT RT Components (Ambion), each in accordance with manufacturer’s recommendations. qPCR was conducted using TaqMan Fast Advanced Master Mix. The final concentrations of primers and probes were adjusted to 0.4 µM and 0.15 µM, respectively. Cycle conditions were as follows; 50 °C for 2 min and 95 °C for 2 s; followed by 40 cycles of denaturation at 95 °C for 1 s; annealing and elongation at 60 °C for 20 s in the ABI7900HT RT-PCR system (Applied Biosystems, USA). The relative quantification in gene expression was determined using the 2−ΔΔCt method.

FL-SMN2 mRNA = assay: qPCR of FL-SMN2 transcripts in SMA type II fibroblasts (GM03813); type: cell-based, human; settings: 24 h, 50% total FL-SMN2 mRNA increase, normalized to GAPDH, 95% CI in brackets
Experimental: as §1
(§2) All cells were treated with above compounds for 24 h and washed once with Dulbecco’s Phosphate-Buffered Saline without Ca and Mg [D-PBS (–)] (Wako or Nakarai Tesque). In case of using GM03813 or GM24468-derived MNs, cell lysis and reverse transcription were carried out using SuperPrep Cell Lysis & RT Kit for qPCR in accordance with manufacturer’s recommendations (Toyobo, Japan). qPCR was performed using THUNDERBIRD Probe qPCR Mix (Toyobo). The final concentrations of primers and probes were adjusted to 0.4 µM and 0.15 µM, respectively (Supplementary Table 1). Cycle conditions were as follows; 95 °C for 1 min; followed by 40 cycles of denaturation at 95 °C for 15 s; annealing and elongation at 60 °C for 1 min in the ViiA7 RT-PCR system (Thermo Fisher Scientific). The copy numbers of each target were normalized to those of GAPDH.

cynomolgus monkeys = settings: cynomolgus monkey, in vivo; cited from earlier work
[2] = set-up: method as in PMID 30044619; settings: in vitro and in vivo; cited from earlier work
FOXM1b = assay: qPCR of FOXM1b/c variant in GM03813 fibroblasts; type: cell-based, human
Experimental: as §1, §2

FOXM1ΔC = assay: qPCR of FOXM1ΔC variant in GM03813 fibroblasts; type: cell-based, human; settings: 24 h, 300% total target mRNA increase, 95% CI in brackets
Experimental: as §1, §2

FOXM1a = assay: qPCR of FOXM1a variant in GM03813 fibroblasts; type: cell-based, human; settings: 24 h, 200% total target mRNA increase, 95% CI in brackets
Experimental: as §1, §2

Row | SMILES | Micronucleated cells Well 1 (TK6 cells) | Micronucleated cells Well 2 (TK6 cells) | Micronucleated cells Total (TK6 cells; counted in 4000 cells) | Micronucleated cells (%) (TK6 cells; p < 0.01) | exposure cap, AUC0–24h in plasma [1] | FOXM1 splicing in cynomolgus monkey cells (FOXM1) | EC1.5× FL-SMN2 (FL-SMN2 mRNA) | findings in 39-week toxicological study (cynomolgus monkeys) | micronucleus induction [2] | Selectivity FOXM1b /FL-SMN2 (FOXM1b; EC50 of FOXM1b divided by EC1.5× of FL-SMN2) | EC50 (FOXM1b; Homo sapiens, Fibroblast, GM03813 fibroblasts, 24 h, 50% total target mRNA reduction, 95% CI in brackets) | EC4.0× FOXM1ΔC (FOXM1ΔC) | EC3.0× FOXM1a (FOXM1a)
1 | O=P1(N(CCCl)CCCl)NCCCO1 (stereo not shown) [CP, cyclophosphamide, reference compound] | 39 | 46 | 85 | (2.13) ** % | – | – | – | – | – | – | – | – | –
2 | Cc1cn2nc(-c3cc(=O)n4cc(N5CCNC6(CC6)C5)ccc4n3)cc(C)c2n1 [Risdiplam] | – | – | – | – | 1500 ng·h/mL | FOXM1 mis-splicing was similarly observed | 15.8 (8.81–32.8) nM | pathological intestinal and pancreatic changes, and irreversible retinal degeneration | induces micronucleation in vitro and in vivo | 8 | 124 nM | 38.9 (6.98–85.0) nM | 24.2 (4.49–78.5) nM
